Measured values: patent publication US20040248953A1, “3-Arylsulfanyl and 3-heteroarylsulfanyl substituted benzo[b]thiophenes as therapeutic agents” (priority 2003, published 2004)

Molecular target: T1, PI3Kγ (Homo sapiens, UniProt P48736)
T1 construct: HA; made in house; host or cells: Spodoptera frugiperda (Sf9) cells, baculovirus coinfection
Test: PI3Kγ in vitro kinase assay (32P-ATP, PIP2 lipid micelles, filter plate)
Format: biochemical
Conditions: purified recombinant p101/p110γ protein with G protein β1/γ2 subunits; 20 μM ATP; 25 μM PIP2; 20 minutes at room temperature
Protocol: Spodtera frugiperda cells, grown in ESF921 media, were coinfected with baculovirus expressing a glu-tagged p101 and baculovirus expressing an HA-tagged p110γ, at a 3:1 ratio of p101 baculovirus to p110γ baculovirus. Sf9 cells were grown to 1×10^7 total cells/mL in 10 L bioreactors and harvested 48-72 hours post infection. Samples of infected cells were then tested for expression of p101/p110γ PI3 kinase by immunoprecipitation and Western Blot analysis methods (see below). To purify PI3Kγ, 4 volumes of room temperature hypotonic lysis buffer (1 mM MgCl2, 1 mM DTT, 5 mM EGTA, 1 mM Pefabloc, 0.5 μM aprotinin, 5 μM leupeptin, 2 μM pepstatin, 5 μM E64, pH 8) per gram of cell paste, was poured onto frozen cell pellets with stirring, then lysed in a nitrogen “bomb” at 400 psi (599HC […], Parr Instrument Co, Moline, Ill.). NaCl was added to 150 mM, and sodium cholate was added to 1% and mixed for another 45 minutes. The lysates were clarified by centrifugation for 25 minutes at 14,000 rpm. The lysates were then loaded over anti-glu-linked Protein-G Sepaharose beads (Covance Research Products, Richmond, Calif.) using 20 mL resin/50 g cell paste. The column was washed with 15 volumes of wash buffer (1 mM DTT, 0.2 mM EGTA, 1 mM Pefabloc, 0.5 μM aprotinin, 5 μM leupeptin, 2 μM pepstatin, 5 μM E64, 150 mM NaCl, 1% sodium cholate, pH 8). PI3Kγ was eluted with 6 column volumes of wash buffer that contain 100 μg/mL of a peptide that competes for binding of the glu tag. The column fractions with the eluted protein (determined by taking OD280 readings) were collected and dialyzed in 0.2 mM EGTA, 1 mM DTT, 1 mM Pefabloc, 5 μM leupeptin, 0.5% sodium cholate, 150 mM NaCl, and 50% glycerol, pH 8. The fractions were stored at -80° C. until further use. Spodtera frugiperda cells were coinfected with baculovirus expressing a glu-tagged G protein β1 and baculovirus expressing a […], at a 1:1 ratio of glu-tagged G protein β1 baculovirus to G protein β2 baculovirus. Sf9 cells are grown in 10 L bioreactors and harvested 48-72 hours post infection. Samples of infected cells were tested for G protein β1/β2 expression by Western Blot analysis, as described below. Cell lysates were homogenized and loaded onto a column of glu-tagged beads as in Biological Example 1 and competed off the column with a glu peptide and processed as described in Biological Example 1. The inhibitory properties of the compounds in Table 1 were assayed in an in vitro PI3K assay. In a 96-well polypropylene plate, each well was spotted with […] of 50 times the desired final concentration of compound in DMSO. Purified recombinant p101/p110γ protein (0.03 μg; 2.7 nM) and G protein β1/γ2 subunits (0.09 μg; 57.7 nM) for each reaction was combined in the assay buffer (30 mM HEPES, 100 mM NaCl, 1 mM EGTA, and 1 mM DTT). ATP and [γ-^32P-ATP] (0.09 μCi) were added to this mixture so that the final ATP concentration in the reaction was 20 μM. Lipid micelles were formed by sonicating phosphatidylinositol4,5-diphosphate (PIP2), phosphatidylethanolamine (PE), and Na-cholate in the assay buffer for 10 minutes, adding MgCl2 and incubating on ice for 20 minutes, for final concentrations of 25 μM PIP2, 300 μM PE, 0.02% Na-cholate, and 10 mM MgCl2 in the reaction. The reactions were started by adding equal volumes lipid and enzyme mixture in a total volume of 50 μL, allowed to run for 20 minutes at room temperature, and stopped with 100 μL 75 mM H3PO4. The lipid product was transferred to a glass fiber filter plate and washed with 75 mM H3PO4 several times. The presence of radioactive lipid product (PIP3) was measured by adding Wallac Optiphase mix to each well and counting in a Wallac 1450 Trilux plate reader (PerkinElmer Life Sciences Inc., Boston, Mass. 02118). The IC50 for each compound tested is reported in μM in Table 1: […]

T1 sequence (P48736 whole entry, species assumed): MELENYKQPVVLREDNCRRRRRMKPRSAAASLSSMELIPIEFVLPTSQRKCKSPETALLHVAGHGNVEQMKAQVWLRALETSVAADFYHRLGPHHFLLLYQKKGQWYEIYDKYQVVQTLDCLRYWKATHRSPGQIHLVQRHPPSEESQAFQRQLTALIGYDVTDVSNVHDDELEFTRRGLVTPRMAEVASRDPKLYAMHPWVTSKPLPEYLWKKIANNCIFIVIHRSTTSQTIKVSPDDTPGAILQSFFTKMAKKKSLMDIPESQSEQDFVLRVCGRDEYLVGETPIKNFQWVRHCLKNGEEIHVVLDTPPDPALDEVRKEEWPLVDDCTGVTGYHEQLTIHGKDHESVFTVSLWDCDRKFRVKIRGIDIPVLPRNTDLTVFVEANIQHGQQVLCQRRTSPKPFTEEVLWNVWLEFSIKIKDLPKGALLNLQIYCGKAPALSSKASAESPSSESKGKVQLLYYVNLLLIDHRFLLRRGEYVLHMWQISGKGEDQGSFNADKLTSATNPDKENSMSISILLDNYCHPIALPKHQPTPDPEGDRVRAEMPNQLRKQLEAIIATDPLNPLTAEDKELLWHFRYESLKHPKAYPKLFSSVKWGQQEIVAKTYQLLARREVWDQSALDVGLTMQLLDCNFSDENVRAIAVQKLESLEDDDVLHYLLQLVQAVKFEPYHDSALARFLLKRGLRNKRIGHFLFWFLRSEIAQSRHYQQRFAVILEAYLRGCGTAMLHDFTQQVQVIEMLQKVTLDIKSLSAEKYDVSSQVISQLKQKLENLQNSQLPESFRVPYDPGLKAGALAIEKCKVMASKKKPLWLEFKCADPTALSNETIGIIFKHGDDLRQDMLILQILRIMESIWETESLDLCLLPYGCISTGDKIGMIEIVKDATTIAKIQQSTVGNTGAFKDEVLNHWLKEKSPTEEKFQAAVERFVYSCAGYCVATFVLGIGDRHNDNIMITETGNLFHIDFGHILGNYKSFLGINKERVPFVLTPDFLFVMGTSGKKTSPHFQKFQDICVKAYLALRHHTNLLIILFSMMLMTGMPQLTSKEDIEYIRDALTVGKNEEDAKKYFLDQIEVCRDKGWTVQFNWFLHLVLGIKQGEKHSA
T1 sequence (Q8WYR1 whole entry partner, species assumed): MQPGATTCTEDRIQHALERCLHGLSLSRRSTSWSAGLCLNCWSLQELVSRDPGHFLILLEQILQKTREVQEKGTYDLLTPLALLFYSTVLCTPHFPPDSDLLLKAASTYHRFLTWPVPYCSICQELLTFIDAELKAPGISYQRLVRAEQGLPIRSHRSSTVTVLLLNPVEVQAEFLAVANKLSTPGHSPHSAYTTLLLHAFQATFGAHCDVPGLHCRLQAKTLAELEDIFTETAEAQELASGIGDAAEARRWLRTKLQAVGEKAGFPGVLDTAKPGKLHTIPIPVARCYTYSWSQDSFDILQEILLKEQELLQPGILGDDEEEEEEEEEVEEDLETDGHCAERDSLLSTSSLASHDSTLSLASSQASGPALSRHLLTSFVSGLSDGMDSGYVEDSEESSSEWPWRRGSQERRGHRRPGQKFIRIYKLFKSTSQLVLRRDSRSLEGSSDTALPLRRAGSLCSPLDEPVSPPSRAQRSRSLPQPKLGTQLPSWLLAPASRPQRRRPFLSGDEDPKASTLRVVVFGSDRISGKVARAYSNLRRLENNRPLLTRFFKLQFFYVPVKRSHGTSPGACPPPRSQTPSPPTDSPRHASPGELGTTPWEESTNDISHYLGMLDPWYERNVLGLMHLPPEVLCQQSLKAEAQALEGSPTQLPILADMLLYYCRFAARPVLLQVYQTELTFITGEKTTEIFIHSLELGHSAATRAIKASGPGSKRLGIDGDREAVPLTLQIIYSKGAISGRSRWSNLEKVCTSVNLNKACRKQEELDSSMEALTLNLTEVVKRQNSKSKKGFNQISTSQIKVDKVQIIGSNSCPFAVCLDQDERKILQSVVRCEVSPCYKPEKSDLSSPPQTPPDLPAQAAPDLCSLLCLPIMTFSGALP

Compound	IC50
COc1ccc2sc(C(=O)Nc3nnn[nH]3)c(Sc3ccc4c(c3)OCO4)c2c1 [Example 27, 3-(benzo[1,3]dioxol-5-ylsulfanyl)-5-methoxy-benzo[b]thiophene-2-carboxylic acid(1H-tetrazol-5-yl)-amide]	1.69 µM
COc1cc2sc(C(=O)Nc3nnn[nH]3)c(Sc3ccc(O)cc3)c2cc1OC [Example 28, 3-(4-hydroxy-phenylsulfanyl)-5,6-dimethoxy-benzo[b]thiophene-2-carboxylic acid(1H-tetrazol-5-yl)-amide]	1.84 µM
COc1cc2sc(C(=O)Nc3nnn[nH]3)c(Sc3ccoc3C)c2cc1OC [Example 29, 5,6-dimethoxy-3-(2-methyl-furan-3-ylsulfanyl)-benzo[b]thiophene-2-carboxylic acid(1H-tetrazol-5-yl)-amide]	2.16 µM
COc1cc2c(Sc3ccc(O)cc3)c(C(=O)Nc3nnn[nH]3)sc2cc1C [Example 30, 3-(4-Hydroxy-phenylsulfanyl)-5-methoxy-6-methyl-benzo[b]thiophene-2-carboxylic acid(1H-tetrazol-5-yl)-amide]	0.625 µM
COC(=O)Cc1ccc(Sc2c(C(=O)Nc3nnn[nH]3)sc3cc(C)c(OC)cc23)cc1 [Example 31, {4-[5-Methoxy-6-methyl-2-(1H-tetrazol-5-ylcarbamoyl)-benzo[b]thiophen-3-ylsulfanyl]-phenyl}-acetic acid methyl ester]	3.96 µM
COC(=O)CCc1ccc(Sc2c(C(=O)Nc3nnn[nH]3)sc3cc(C)c(OC)cc23)cc1 [Example 32, 3-{4-[5-Methoxy-6-methyl-2-(1H-tetrazol-5-ylcarbamoyl)-benzo[b]thiophen-3-ylsulfanyl]-phenyl}-propionic acid methyl ester]	4.53 µM
COc1cccc(Sc2c(C(=O)Nc3nnn[nH]3)sc3cc(C)c(OC)cc23)c1 [Example 34, 5-Methoxy-3-(3-methoxy-phenylsulfanyl)-6-methyl-benzo[b]thiophene-2-carboxylic acid(1H-tetrazol-5-yl)-amide]	0.207 µM
COc1cc2c(Sc3ccc(C(C)C)cc3)c(C(=O)Nc3nnn[nH]3)sc2cc1C [Example 35, 3-(4-Isopropyl-phenylsulfanyl)-5-methoxy-6-methyl-benzo[b]thiophene-2-carboxylic acid(1H-tetrazol-5-yl)-amide]	0.37 µM
COc1cc2sc(C(=O)Nc3nnn[nH]3)c(Sc3cccc(O)c3)c2cc1OC [Example 36, 3-(3-Hydroxy-phenylsulfanyl)-5,6-dimethoxy-benzo[b]thiophenes-2-carboxylic acid(1H-tetrazol-5-yl)-amide]	1.88 µM
COc1ccc(Sc2c(C(=O)Nc3nnn[nH]3)sc3cc(C)c(OC)cc23)cc1 [Example 37, 5-Methoxy-3-(4-methoxy-phenylsulfanyl)-6-methyl-benzo[b]thiophene-2-carboxylic acid(1H-tetrazol-5-yl)-amide]	0.808 µM
COc1cc2sc(C(=O)Nc3nnn[nH]3)c(Sc3ccc(O)cc3)c2cc1C [Example 38, 3-(4-Hydroxy-phenylsulfanyl)-6-methoxy-5-methyl-benzo[b]thiophene-2-carboxylic acid(1H-tetrazol-5-yl)-amide]	0.885 µM
COc1cc2sc(C(=O)Nc3nnn[nH]3)c(Sc3cccc(O)c3)c2cc1C [Example 39, 3-(3-Hydroxy-phenylsulfanyl)-6-methoxy-5-methyl-benzo[b]thiophene-2-carboxylic acid(1H-tetrazol-5-yl)-amide]	0.98 µM
COC(=O)Cc1ccc(Sc2c(C(=O)Nc3nnn[nH]3)sc3cc(OC)c(C)cc23)cc1 [Example 40, {4-[6-Methoxy-5-methyl-2-(1H-tetrazol-5-ylcarbamoyl)-benzo[b]thiophen-3-ylsulfanyl]-phenyl}-acetic acid methyl ester]	1.26 µM
COC(=O)CCc1ccc(Sc2c(C(=O)Nc3nnn[nH]3)sc3cc(OC)c(C)cc23)cc1 [Example 41, 3-{4-[6-Methoxy-5-methyl-2-(1H-tetrazol-5-ylcarbamoyl)-benzo[b]thiophen-3-ylsulfanyl]-phenyl}-propionic acid methyl ester]	4.08 µM
COc1cc2sc(C(=O)Nc3nnn[nH]3)c(Sc3cccc(C(F)(F)F)c3)c2cc1C [Example 42, 6-Methoxy-5-methyl-3-(3-trifluoromethyl-phenylsulfanyl)-benzo[b]thiophene-2-carboxylic acid(1H-tetrazol-5-yl)-amide]	2.17 µM
COc1cc2sc(C(=O)Nc3nnn[nH]3)c(SC(c3ccccc3)C(C)N(C)C(C)=O)c2cc1C (centres unmarked) [Example 44, 3-[2-(Acetyl-methyl-amino)-1-phenyl-propylsulfanyl]-6-methoxy-5-methyl-benzo[b]thiophene-2-carboxylic acid(1H-tetrazol-5-yl)-amide]	2.78 µM
COc1cc2sc(C(=O)Nc3nnn[nH]3)c(Sc3cccc(Cl)c3)c2cc1C [Example 45, 3-(3-Chloro-phenylsulfanyl)-6-methoxy-5-methyl-benzo[b]thiophene-2-carboxylic acid(1H-tetrazol-5-yl)-amide]	0.465 µM
COc1cccc(Sc2c(C(=O)Nc3nnn[nH]3)sc3cc(OC)c(C)cc23)c1 [Example 46, 6-Methoxy-3-(3-methoxy-phenylsulfanyl)-5-methyl-benzo[b]thiophene-2-carboxylic acid(1H-tetrazol-5-yl)-amide]	0.6 µM
COc1cc2sc(C(=O)Nc3nnn[nH]3)c(Sc3ccc(C(C)C)cc3)c2cc1C [Example 47, 3-(4-Isopropyl-phenylsulfanyl)-6-methoxy-5-methyl-benzo[b]thiophene-2-carboxylic acid(1H-tetrazol-5-yl)-amide]	3.13 µM
COC(=O)Cc1ccc(Sc2c(C(=O)Nc3nnn[nH]3)sc3cc(OC)c(OC)cc23)cc1 [Example 49, {4-[5,6-Dimethoxy-2-(1H-tetrazol-5-ylcarbamoyl)-benzo[b]thiophen-3-ylsulfanyl]-phenyl}-acetic acid methyl ester]	1.29 µM
COc1cc2sc(C(=O)Nc3nnn[nH]3)c(Sc3cccc(C(F)(F)F)c3)c2cc1OC [Example 50, 5,6-Dimethoxy-3-(3-trifluoromethyl-phenylsulfanyl)-benzo[b]thiophene-2-carboxylic acid(1H-tetrazol-5-yl)-amide]	3.38 µM
COc1cccc(Sc2c(C(=O)Nc3nnn[nH]3)sc3cc(OC)c(OC)cc23)c1 [Example 51, 5,6-Dimethoxy-3-(3-methoxy-phenylsulfanyl)-benzo[b]thiophene-2-carboxylic acid(1H-tetrazol-5-yl)-amide]	0.438 µM
COc1cc2c(Sc3ccc(N(C)C)cc3)c(C(=O)Nc3nnn[nH]3)sc2cc1C [Example 53, 3-(4-Dimethylamino-phenylsulfanyl)-5-methoxy-6-methyl-benzo[b]thiophene-2-carboxylic acid(1H-tetrazol-5-yl)-amide]	0.39 µM
COc1cc2c(SCCc3ccccc3)c(C(=O)Nc3nnn[nH]3)sc2cc1C [Example 54]	0.05 µM
COc1cc2c(Sc3ccc(C(=O)O)cc3)c(C(=O)Nc3nnn[nH]3)sc2cc1C [Example 55, 4-[5-Methoxy-6-methyl-2-(1H-tetrazol-5-ylcarbamoyl)-benzo[b]thiophen-3-ylsulfanyl]-benzoic acid]	0.265 µM
COc1cc2c(Sc3ccc(CC(=O)O)cc3)c(C(=O)Nc3nnn[nH]3)sc2cc1C [Example 56, {4-[5-Methoxy-6-methyl-2-(1H-tetrazol-5-ylcarbamoyl)-benzo[b]thiophen-3-ylsulfanyl]-phenyl}-acetic acid]	0.115 µM
